≈ marks a conversion by molar mass, not a printed value.
Key:
H9 cell line = experiment: leukemia cell growth inhibition, MTT; assay type: cell-based; details: Homo sapiens; for IC50: H9, 72 h; for inhibition at 16 µg/mL: H9, 16 μg/mL compound, 72 h, read-out: IR (cell proliferation inhibition rate)
Outline: (§1)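 Proliferation inhibition rates derive from MTT-measured viability, normalised so the compound-free group equals 0%. Exposure lasted 72 hours at 37° C, 5% CO2, starting from 6000 cells/well in serum-supplemented (10% FBS) 1640 medium.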

Jurkat cell line = experiment: leukemia cell growth inhibition, MTT; assay type: cell-based; details: Homo sapiens, 72 h; for inhibition at 16 µg/mL: 16 μg/mL compound, read-out: IR (cell proliferation inhibition rate)
Outline: as §1

K562/adr cell line = experiment: leukemia cell growth inhibition, MTT; assay type: cell-based; details: Homo sapiens, 72 h; for IC50: K562/Adr; for inhibition at 16 µg/mL: K562/adr, 16 μg/mL compound, read-out: IR (cell proliferation inhibition rate)
Outline: as §1

Kasumi-1 cell line = experiment: leukemia cell growth inhibition, MTT; assay type: cell-based; details: Homo sapiens; for inhibition at 16 µg/mL: Kasumi-1, 16 μg/mL compound, 72 h, read-out: IR (cell proliferation inhibition rate); for IC50: Kasumi-1, 72 h
Outline: as §1

NB4 cell line = experiment: leukemia cell growth inhibition, MTT; assay type: cell-based; details: Homo sapiens, NB-4; for inhibition at 16 µg/mL: NB4, 16 μg/mL compound, 72 h, read-out: IR (cell proliferation inhibition rate); for IC50: NB4, 72 h
Outline: as §1

RPMI8226 cell line = experiment: multiple myeloma cell growth inhibition, MTT; assay type: cell-based; details: Homo sapiens, RPMI-8226; for inhibition at 16 µg/mL: RPMI8226, 16 μg/mL compound, 72 h, read-out: IR (cell proliferation inhibition rate); for IC50: RPMI8226, 72 h
Outline: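 Viability was measured by MTT after a 72 h compound exposure (37° C, 5% CO2) of RPMI8226 myeloma cells seeded at 6000 per well in 1640 medium with 10% fetal bovine serum. Growth inhibition was expressed relative to untreated cells, taken as 0%.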

Hep G2 cell line = experiment: solid tumor cell growth inhibition, MTT; assay type: cell-based, human; details: for inhibition at 16 µg/mL / IC50: Homo sapiens; for inhibition at 16 µg/mL: HepG2, 72 h, Hep G2, 16 μg/mL compound, 72 h, read-out: IR (cell proliferation inhibition rate); for IC50: HepG2, Hep G2, 72 h
Outline: (§2)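 Compound-treated cultures (72 h, 37° C, 5% CO2, DMEM high glucose with 10% FBS) were compared with untreated wells assigned 0% inhibition, using MTT to gauge relative living cells; seeding was 4000 cells per well, 24 h before treatment.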

A549 cell line = experiment: solid tumor cell growth inhibition, MTT; assay type: cell-based; details: Homo sapiens; for IC50: A549, 72 h; for inhibition at 16 µg/mL: A549, 16 μg/mL compound, 72 h, read-out: IR (cell proliferation inhibition rate)
Outline: as §2

Becap37 cell line = experiment: solid tumor cell growth inhibition, MTT; assay type: cell-based; details: Homo sapiens; for inhibition at 16 µg/mL: Becap37, 16 μg/mL compound, 72 h, read-out: IR (cell proliferation inhibition rate); for IC50: Becap37, 72 h
Outline: as §2

CNE cell line = experiment: solid tumor cell growth inhibition, MTT; assay type: cell-based; details: Homo sapiens, 72 h; for inhibition at 16 µg/mL: 16 μg/mL compound, read-out: IR (cell proliferation inhibition rate)
Outline: as §2

CaES-17 cell line = experiment: solid tumor cell growth inhibition, MTT; assay type: cell-based; details: Homo sapiens, CaEs17; for inhibition at 16 µg/mL: CaES-17, 16 μg/mL compound, 72 h, read-out: IR (cell proliferation inhibition rate); for IC50: CaES-17, 72 h
Outline: as §2

Hela cell line = experiment: solid tumor cell growth inhibition, MTT; assay type: cell-based; details: Homo sapiens, 72 h; for IC50: HeLa; for inhibition at 16 µg/mL: Hela, 16 μg/mL compound, read-out: IR (cell proliferation inhibition rate)
Outline: as §2

Hep-2 cell line = experiment: solid tumor cell growth inhibition, MTT; assay type: cell-based; details: Homo sapiens; for IC50: HEp-2, 72 h; for inhibition at 16 µg/mL: Hep-2, 16 μg/mL compound, 72 h, read-out: IR (cell proliferation inhibition rate)
Outline: as §2

MG-63 cell line = experiment: solid tumor cell growth inhibition, MTT; assay type: cell-based; details: Homo sapiens; for IC50: MG-63, 72 h; for inhibition at 16 µg/mL: MG-63, 16 μg/mL compound, 72 h, read-out: IR (cell proliferation inhibition rate)
Outline: as §2

MGC 803 cell line = experiment: solid tumor cell growth inhibition, MTT; assay type: cell-based; details: Homo sapiens; for inhibition at 16 µg/mL: MGC 803, 16 μg/mL compound, 72 h, read-out: IR (cell proliferation inhibition rate); for IC50: MGC 803, 72 h
Outline: as §2

PANC-1 cell line = experiment: solid tumor cell growth inhibition, MTT; assay type: cell-based; details: Homo sapiens; for IC50: PANC-1, 72 h; for inhibition at 16 µg/mL: PANC-1, 16 μg/mL compound, 72 h, read-out: IR (cell proliferation inhibition rate)
Outline: as §2

PC-3 cell line = experiment: solid tumor cell growth inhibition, MTT; assay type: cell-based; details: Homo sapiens; for IC50: PC-3, 72 h; for inhibition at 16 µg/mL: PC-3, 16 μg/mL compound, 72 h, read-out: IR (cell proliferation inhibition rate)
Outline: as §2

RKO cell line = experiment: solid tumor cell growth inhibition, MTT; assay type: cell-based; details: Homo sapiens, 72 h; for inhibition at 16 µg/mL: 16 μg/mL compound, read-out: IR (cell proliferation inhibition rate)
Outline: as §2

SK-OV-3 cell line = experiment: solid tumor cell growth inhibition, MTT; assay type: cell-based; details: Homo sapiens; for IC50: SK-OV-3, 72 h; for inhibition at 16 µg/mL: SK-OV-3, 16 μg/mL compound, 72 h, read-out: IR (cell proliferation inhibition rate)
Outline: as §2

U87 MG cell line = experiment: solid tumor cell growth inhibition, MTT; assay type: cell-based; details: Homo sapiens, U-87 MG, 72 h; for inhibition at 16 µg/mL: 16 μg/mL compound, read-out: IR (cell proliferation inhibition rate)
Outline: as §2

CN(C)CCCNC(=O)C1C[C@@]2(C)C(CC[C@]3(C)C2CC=C2C4CC(C)(C)CC[C@]4(C(=O)O)CC[C@]23C)C(C)(C)C1=O (stereo partly shown) [BS-OA-109]
IC50 (H9 cell line): > 16 µg/mL
inhibition at 16 µg/mL (H9 cell line): 39.4%
inhibition at 16 µg/mL (Jurkat cell line): 32.3%
IC50 (Jurkat cell line): > 16 µg/mL
IC50 (K562/adr cell line): 6.8 µg/mL (≈ 11.7 µM)
inhibition at 16 µg/mL (K562/adr cell line): 86.2%
inhibition at 16 µg/mL (Kasumi-1 cell line): 36.2%
IC50 (Kasumi-1 cell line): > 16 µg/mL
inhibition at 16 µg/mL (NB4 cell line): 76.6%
IC50 (NB4 cell line): 10.8 µg/mL (≈ 18.5 µM)
inhibition at 16 µg/mL (RPMI8226 cell line): 96%
IC50 (RPMI8226 cell line): 6.21 µg/mL (≈ 10.7 µM)
inhibition at 16 µg/mL (Hep G2 cell line): 32.1%
IC50 (Hep G2 cell line): > 16 µg/mL
IC50 (A549 cell line): > 16 µg/mL
inhibition at 16 µg/mL (A549 cell line): 7.5%
inhibition at 16 µg/mL (Becap37 cell line): 19.7%
IC50 (Becap37 cell line): > 16 µg/mL
inhibition at 16 µg/mL (CNE cell line): 36.5%
IC50 (CNE cell line): > 16 µg/mL
inhibition at 16 µg/mL (CaES-17 cell line): 4.1%
IC50 (CaES-17 cell line): > 16 µg/mL
IC50 (Hela cell line): > 16 µg/mL
inhibition at 16 µg/mL (Hela cell line): 23.6%
IC50 (Hep-2 cell line): > 16 µg/mL
inhibition at 16 µg/mL (Hep-2 cell line): 11.3%
IC50 (MG-63 cell line): > 16 µg/mL
inhibition at 16 µg/mL (MG-63 cell line): 18.9%
inhibition at 16 µg/mL (MGC 803 cell line): 4.9%
IC50 (MGC 803 cell line): > 16 µg/mL
IC50 (PANC-1 cell line): > 16 µg/mL
inhibition at 16 µg/mL (PANC-1 cell line): 12.9%
IC50 (PC-3 cell line): > 16 µg/mL
inhibition at 16 µg/mL (PC-3 cell line): -5.5%
inhibition at 16 µg/mL (RKO cell line): -4.9%
IC50 (RKO cell line): > 16 µg/mL
IC50 (SK-OV-3 cell line): > 16 µg/mL
inhibition at 16 µg/mL (SK-OV-3 cell line): -13.5%
inhibition at 16 µg/mL (U87 MG cell line): -3.8%
IC50 (U87 MG cell line): > 16 µg/mL

CN1CCN(CCCNC(=O)C2C[C@]3(C)[C@H]4CC=C5[C@@H]6CC(C)(C)CC[C@]6(C(=O)O)CC[C@@]5(C)[C@]4(C)CC[C@H]3C(C)(C)C2=O)CC1 (stereo partly shown) [BS-OA-110]
IC50 (H9 cell line): > 16 µg/mL
inhibition at 16 µg/mL (H9 cell line): 37.9%
inhibition at 16 µg/mL (Jurkat cell line): 45.5%
IC50 (Jurkat cell line): 18.4 µg/mL (≈ 28.8 µM)
IC50 (K562/adr cell line): 8.79 µg/mL (≈ 13.8 µM)
inhibition at 16 µg/mL (K562/adr cell line): 81.9%
inhibition at 16 µg/mL (Kasumi-1 cell line): 41.7%
IC50 (Kasumi-1 cell line): > 16 µg/mL
inhibition at 16 µg/mL (NB4 cell line): 78.8%
IC50 (NB4 cell line): 8.95 µg/mL (≈ 14 µM)
inhibition at 16 µg/mL (RPMI8226 cell line): 96.7%
IC50 (RPMI8226 cell line): 8.58 µg/mL (≈ 13.4 µM)
inhibition at 16 µg/mL (Hep G2 cell line): 29.5%
IC50 (Hep G2 cell line): > 16 µg/mL
IC50 (A549 cell line): > 16 µg/mL
inhibition at 16 µg/mL (A549 cell line): 4%
inhibition at 16 µg/mL (Becap37 cell line): 22.2%
IC50 (Becap37 cell line): > 16 µg/mL
inhibition at 16 µg/mL (CNE cell line): 30.1%
IC50 (CNE cell line): > 16 µg/mL
inhibition at 16 µg/mL (CaES-17 cell line): -1%
IC50 (CaES-17 cell line): > 16 µg/mL
IC50 (Hela cell line): > 16 µg/mL
inhibition at 16 µg/mL (Hela cell line): 26.1%
IC50 (Hep-2 cell line): > 16 µg/mL
inhibition at 16 µg/mL (Hep-2 cell line): -6.3%
IC50 (MG-63 cell line): > 16 µg/mL
inhibition at 16 µg/mL (MG-63 cell line): 29.5%
inhibition at 16 µg/mL (MGC 803 cell line): 2.9%
IC50 (MGC 803 cell line): > 16 µg/mL
IC50 (PANC-1 cell line): > 16 µg/mL
inhibition at 16 µg/mL (PANC-1 cell line): 13.1%
IC50 (PC-3 cell line): > 16 µg/mL
inhibition at 16 µg/mL (PC-3 cell line): -11.4%
inhibition at 16 µg/mL (RKO cell line): -19.1%
IC50 (RKO cell line): > 16 µg/mL
IC50 (SK-OV-3 cell line): > 16 µg/mL
inhibition at 16 µg/mL (SK-OV-3 cell line): -20.1%
inhibition at 16 µg/mL (U87 MG cell line): -12.6%
IC50 (U87 MG cell line): > 16 µg/mL

CC1(C)CC[C@]2(C(=O)O)CC[C@]3(C)C(=CC[C@@H]4[C@@]5(C)CC[C@H](O)C(C)(C)[C@@H]5CC[C@]43C)[C@@H]2C1 [OA, Oleanolic acid]
IC50 (H9 cell line): > 16 µg/mL
inhibition at 16 µg/mL (H9 cell line): 22.8%
inhibition at 16 µg/mL (Jurkat cell line): 9.4%
IC50 (Jurkat cell line): > 16 µg/mL
IC50 (K562/adr cell line): > 16 µg/mL
inhibition at 16 µg/mL (K562/adr cell line): 26.5%
inhibition at 16 µg/mL (Kasumi-1 cell line): 17.2%
IC50 (Kasumi-1 cell line): > 16 µg/mL
inhibition at 16 µg/mL (NB4 cell line): 17.2%
IC50 (NB4 cell line): > 16 µg/mL
inhibition at 16 µg/mL (RPMI8226 cell line): 2.2%
IC50 (RPMI8226 cell line): > 16 µg/mL
proliferation inhibition effect (in words) (Hep G2 cell line; Hep G2): does not exhibit obvious proliferation inhibition effect
inhibition at 16 µg/mL (Hep G2 cell line): -18.5%
IC50 (Hep G2 cell line): > 16 µg/mL
IC50 (A549 cell line): > 16 µg/mL
inhibition at 16 µg/mL (A549 cell line): 5%
inhibition at 16 µg/mL (Becap37 cell line): 23.4%
IC50 (Becap37 cell line): > 16 µg/mL
inhibition at 16 µg/mL (CNE cell line): 33.9%
IC50 (CNE cell line): > 16 µg/mL
inhibition at 16 µg/mL (CaES-17 cell line): 27.4%
IC50 (CaES-17 cell line): > 16 µg/mL
IC50 (Hela cell line): > 16 µg/mL
inhibition at 16 µg/mL (Hela cell line): 22.9%
IC50 (Hep-2 cell line): > 16 µg/mL
inhibition at 16 µg/mL (Hep-2 cell line): 9.8%
IC50 (MG-63 cell line): > 16 µg/mL
inhibition at 16 µg/mL (MG-63 cell line): 29.2%
inhibition at 16 µg/mL (MGC 803 cell line): 19.7%
IC50 (MGC 803 cell line): > 16 µg/mL
IC50 (PANC-1 cell line): > 16 µg/mL
inhibition at 16 µg/mL (PANC-1 cell line): 8.5%
IC50 (PC-3 cell line): > 16 µg/mL
inhibition at 16 µg/mL (PC-3 cell line): 29.1%
inhibition at 16 µg/mL (RKO cell line): 14.3%
IC50 (RKO cell line): > 16 µg/mL
IC50 (SK-OV-3 cell line): > 16 µg/mL
inhibition at 16 µg/mL (SK-OV-3 cell line): 8.3%
inhibition at 16 µg/mL (U87 MG cell line): 21.8%
IC50 (U87 MG cell line): > 16 µg/mL
